Results on three molecules are retold here after patent US6524820B1, “Lectins and coding sequences” (University of Georgia Research Foundation, Inc., priority 1997, dated 2003).

Experiment [1] concerns recombinant XL35. The experiment can be described thus: Inhibition of XL35 erythrocyte agglutination activity. The format is cell-based, Xenopus laevis. The conditions noted are these: 2 M urea. How it is done: The assay was performed essentially as described using trypsinized, glutaraldehyde-fixed rabbit erythrocytes [Barondes and Roberson (1987) Methods Enzymol. 138, 516-20] in TCS buffer (10 mM Tris, pH 7.6, 10 mM CaCl2, 150 mM NaCl). To compare the agglutination properties of both the purified and recombinant lectins, the two lectins were assayed under similar conditions. Because the eluted recombinant lectin was in 8 M urea, a solution of purified non-recombinant lectin was also brought to 8 M with a concentrated urea solution. The agglutination assay was performed using […] of either recombinant or native XL35 lectin in […] TCS and 8 M urea was added to wells of a 96-well microtiter plate. Next, […] of TCS alone or TCS containing 0.4 M EDTA or 1.0 M melibiose or 1.0 M sucrose was added to the wells and mixed with the lectin solution. To this solution, 50 ml of a 1:1 suspension of trypsinized, glutaraldehyde-fixed rabbit erythrocytes in TCS was added and the contents of the wells were mixed by trituration. The final concentration of urea in the wells was 2 M, while that of EDTA was 0.10 M and that of melibiose and sucrose were 0.25 M. Agglutination activity was scored after 1.5 hr. at room temperature using an inverted microscope on low power. After 1.5 hr in TCS plus 2 M urea, the purified oocyte lectin retained about 25-50% of the agglutination activity observed when it was assayed in TCS alone, but the relative abilities of various sugars to inhibit the agglutination reaction were similar in the presence or absence of urea. The recombinant lectin precipitated in the absence of urea; therefore, at least 2 M urea was used in the agglutination assay.

Experiment [2] deals with recombinant XL35. The settings on record: in the presence of Ca++; literature (Clark 1987); cited from earlier work.

`OC[C@H]1O[C@@](CO)(O[C@H]2O[C@H](CO)[C@@H](O)[C@H](O)[C@H]2O)[C@@H](O)[C@@H]1O` [sucrose]: the “inhibition of recombinant XL35 agglutination activity” value in the experiment with recombinant XL35 [1] (inhibitor at 0.25 M) is “not”. Turning to `OC[C@H]1O[C@H](OCC2O[C@@H](O)[C@H](O)[C@@H](O)[C@@H]2O)[C@H](O)[C@@H](O)[C@H]1O` (stereo partly shown) [melibiose], the “inhibition of agglutination of trypsinized rabbit erythrocytes by frog oocyte lectins” value in the experiment with recombinant XL35 [2] is “strongly inhibited”. In addition, in the experiment with recombinant XL35 [1] (inhibitor at 0.25 M), the “inhibition of recombinant XL35 agglutination activity” value is recorded as “completely inhibited”. Take `O=C(O)CN(CCN(CC(=O)O)CC(=O)O)CC(=O)O` [EDTA]: the “inhibition of recombinant XL35 agglutination activity” value with recombinant XL35 [1] (inhibitor at 0.1 M) is listed as “completely inhibited”.
